The record followed here is ChEMBL document CHEMBL1201862, “PubChem BioAssay data set” (2004).

Test in all cases: NCI-60 cell line screen, 48 h
For assay [1], the system named is A549.
Assay [2] relates to BT-549.
In assay [3] the test system is COLO 205.
The test system of assay [4] is HCC 2998.
Assay [5] has as its system HCT-15.
The test system of assay [6] is HL-60.
Assay [7] relates to HT-29.
For assay [8], the system named is Hs-578T.
For assay [9], the system named is KM12.
Assay [10] deals with M14.
Assay [11] deals with NCI-H226.
For assay [12], the system named is NCI-H522.
Assay [13] concerns NCI/ADR-RES.
For assay [14], the system named is OVCAR-4.
Assay [15] has as its system RXF 393.
The test system of assay [16] is SK-MEL-28.
The test system of assay [17] is SK-MEL-5.
Assay [18] concerns SK-OV-3.
Assay [19] deals with UACC-257.

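Test compounds were applied to cells in 96-well plates for 48 hours at 5 doses. GI50 = concentration required for 50% inhibition of growth.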 Activity calls are given as the source filed them. Rule as the data show it: active = GI50 up to about 1.1 µM and inactive = higher.

For `Nc1ccn(C2OC(COC(=O)C34CC5CC(CC(C5)C3)C4)C(O)C2O)c(=O)n1` (centres undefined), the GI50 was 0.773 µM (active) in assay [1]; > 100 µM (inactive) in [2]; 59 µM (inactive) in [3]; > 69.3 µM (inactive) in assay [4]; above 70.6 µM in assay [5]; 0.622 µM (active) in assay [6]. The GI50 in assay [7] was > 57.5 µM (inactive); in assay [8] it was > 100 µM (inactive); in assay [9], > 100 µM (inactive); in assay [10], 0.817 µM (active); in assay [11], > 100 µM (inactive); in [12], 10.7 µM (inactive). Besides, the GI50 is > 100 µM (inactive) in assay [13]; > 100 µM (inactive) in assay [14]; > 100 µM (inactive) in [15]; 52.4 µM (inactive) in assay [16]; > 100 µM (inactive) in assay [17]; > 79.8 µM (inactive) in assay [18]. The GI50 in [19] is > 100 µM (inactive).
As to `O=C(O)C(Cc1ccccc1)Cc1ccccc1`, the GI50 in assay [1] is > 100 µM (inactive); in assay [2], > 100 µM (inactive); in assay [3], > 100 µM (inactive); in assay [5] it was above 100 µM; in assay [6], > 100 µM (inactive); in assay [7] it was > 100 µM (inactive). The GI50 in assay [8] is 7.48 µM (inactive); in [9], > 100 µM (inactive); in assay [10], > 100 µM (inactive); in [11], > 100 µM (inactive); in assay [12], > 100 µM (inactive); in assay [13] it was > 100 µM (inactive). Moreover, the GI50 in assay [14], in [15], in assay [16], in [17], in [18] and in assay [19] was > 100 µM (inactive) throughout.
`Cc1ccc(-n2cnc3c(N)nc(N)nc32)cc1`: the GI50 is 69.5 µM (inactive) in assay [1]; > 100 µM (inactive) in [2]; > 100 µM (inactive) in [3]; 76.2 µM (inactive) in assay [4]; above 100 µM in assay [5]; > 100 µM (inactive) in assay [7]. For the same molecule, the GI50 in assay [8] is 42.7 µM (inactive); in assay [9], 42.6 µM (inactive); in assay [10], > 100 µM (inactive); in assay [11], > 100 µM (inactive); in [12], > 100 µM (inactive); in assay [13], > 100 µM (inactive). The GI50 in assay [14] was > 100 µM (inactive); in assay [15], 43.6 µM (inactive); in assay [16], > 100 µM (inactive); in [17] it was > 100 µM (inactive); in assay [18], > 100 µM (inactive); in [19] it was > 100 µM (inactive).
Regarding `CC(=O)NCCCCN(CCCNC(C)=O)C(=O)OCc1ccccc1`, the GI50 is > 100 µM (inactive) in assay [1]; > 100 µM (inactive) in assay [2]; > 100 µM (inactive) in assay [3]; > 100 µM (inactive) in [4]; above 100 µM in [5]; > 100 µM (inactive) in [6]. Moreover, the GI50 in assay [7], in assay [8], in [9], in [10], in assay [11] and in [12] was > 100 µM (inactive) in each case. Besides, the GI50 in [13], in [14], in assay [15], in assay [16], in assay [17] and in [18] was > 100 µM (inactive) throughout. Further, in assay [19], the GI50 is > 100 µM (inactive).
Consider `Cn1c(S)nc2c(Cl)cc(Cl)cc2c1=O`, for which the GI50 in [1] is > 100 µM (inactive); in assay [2], > 100 µM (inactive); in assay [3], > 100 µM (inactive); in assay [4], > 100 µM (inactive); in assay [5], above 100 µM; in assay [6], 18.2 µM (inactive). The GI50 in assay [8] is > 100 µM (inactive); in assay [9], > 100 µM (inactive); in assay [10], > 100 µM (inactive); in assay [12], 44.1 µM (inactive); in [13], > 100 µM (inactive); in [14], > 100 µM (inactive). In addition, the GI50 in assay [15] is > 100 µM (inactive); in assay [16], > 100 µM (inactive); in [17], 99.5 µM (inactive); in assay [18], 74 µM (inactive); in [19] it was > 100 µM (inactive).
As for `COc1cc(N(CCC#N)CCC#N)ccc1C(/N=N/c1ccccc1C)=N\NC(=O)c1ccc(C)cc1`, the GI50 in assay [1] is 59.6 µM (inactive); in assay [2], 98.2 µM (inactive); in [3], 33.7 µM (inactive); in [4], 85.3 µM (inactive); in assay [5], above 100 µM; in assay [6], 2.15 µM (inactive). For the same molecule, the GI50 was 85.3 µM (inactive) in assay [7]; > 100 µM (inactive) in assay [8]; 49.1 µM (inactive) in assay [9]; > 100 µM (inactive) in [10]; > 100 µM (inactive) in assay [11]; 25.2 µM (inactive) in [12]. The GI50 was > 100 µM (inactive) in assay [13]; 59.8 µM (inactive) in assay [14]; > 100 µM (inactive) in [15]; > 100 µM (inactive) in assay [16]; > 100 µM (inactive) in [17]; > 100 µM (inactive) in assay [18]. The GI50 in [19] was 61.2 µM (inactive).
Turning to `CC1/C(=N/O)CC(c2ccccc2)N(N=O)C1c1ccccc1` (centres undefined), the GI50 is > 100 µM (inactive) in assay [1]; > 100 µM (inactive) in assay [2]; > 100 µM (inactive) in assay [3]; > 100 µM (inactive) in [4]; above 100 µM in [5]; > 100 µM (inactive) in assay [6]. Further, the GI50 in assay [7], in assay [8], in assay [9], in assay [10], in [11] and in assay [12] was > 100 µM (inactive) each time. Also, the GI50 was > 100 µM (inactive) in assay [13]; > 100 µM (inactive) in assay [14]; > 100 µM (inactive) in [15]; > 100 µM (inactive) in assay [16]; > 100 µM (inactive) in assay [17]; 82.4 µM (inactive) in assay [18]. Further, in assay [19], the GI50 is > 100 µM (inactive).
In the case of `CC(C)(Br)C(Br)CCC1(C2CO2)CO1` (centres undefined), the GI50 in [1] was > 5 µM (inactive); in assay [2] it was > 5 µM (inactive); in assay [3] it was > 5 µM (inactive); in [4], > 5 µM (inactive); in [5] it was above 5 µM; in assay [7], > 5 µM (inactive). The GI50 in [8], in [10], in assay [11], in assay [12], in assay [13] and in [14] was > 5 µM (inactive) throughout. Moreover, the GI50 in [15], in assay [16], in assay [17], in assay [18] and in [19] was > 5 µM (inactive) in each case.
For the molecule `CN(Cc1ccccc1)c1cc(=O)n(C)c(=O)[nH]1`, the GI50 in [1] was > 100 µM (inactive); in assay [2], > 100 µM (inactive); in [3], > 100 µM (inactive); in assay [4] it was > 100 µM (inactive); in [5], above 100 µM; in assay [6], > 100 µM (inactive). The GI50 in assay [7], in assay [8], in assay [10], in [11], in assay [12] and in assay [13] was > 100 µM (inactive) in each case. Further, the GI50 in [14], in [16], in [17], in assay [18] and in [19] was > 100 µM (inactive) each time.
For `O=P1(C(O)/C=C/c2ccccc2)N(Cc2ccccc2)[C@@H]2CCCC[C@H]2N1Cc1ccccc1` (some centres undefined), the GI50 is 4.62 µM (inactive) in assay [1]; 15 µM (inactive) in [2]; 2.42 µM (inactive) in assay [3]; 3.9 µM (inactive) in [4]; 6.14 µM in assay [5]; 2.71 µM (inactive) in assay [6]. For the same molecule, the GI50 in assay [7] is 3.67 µM (inactive); in assay [8], 3.65 µM (inactive); in assay [9], 4.66 µM (inactive); in [10], 4.39 µM (inactive); in assay [11], 4.51 µM (inactive); in assay [12], 2.42 µM (inactive). Moreover, the GI50 was 9.53 µM (inactive) in assay [13]; 5.38 µM (inactive) in assay [14]; 7.29 µM (inactive) in assay [15]; 11.2 µM (inactive) in assay [16]; 4.58 µM (inactive) in [17]; 24 µM (inactive) in [18]. Besides, the GI50 in assay [19] was 4.32 µM (inactive).
Regarding `COc1c2nc(CCl)n(C)c(=O)c2c(OC)c2c(=O)n(C)c(CCl)nc12`, the GI50 was 3.08 µM (inactive) in assay [1]; 0.544 µM (active) in assay [2]; 1.41 µM (inactive) in assay [3]; 1.34 µM (inactive) in assay [4]; 1.48 µM in [5]; 0.653 µM (active) in assay [6]. Further, the GI50 in [7] is 1.3 µM (inactive); in assay [8], 4.27 µM (inactive); in assay [9], 1.22 µM (inactive); in assay [11], 3.06 µM (inactive); in [12], 1.34 µM (inactive); in assay [13] it was 2.49 µM (inactive). For the same molecule, the GI50 in assay [14] is > 100 µM (inactive); in assay [15], 2.07 µM (inactive); in assay [16], 1.85 µM (inactive); in [17], 1.92 µM (inactive); in assay [19], 1.81 µM (inactive).
